Source: patent publication US6630338B2, “Removing deacetylase contaminant from cephalosporin C acylase using cationic surfactant” (Fujisawa Pharmaceutical Co., Ltd., priority 1996, dated 2003)

Assays:
CC acylase = assay: Residual CC acylase activity after addition of surfactant (7-ACA produced from GL7-ACA); assay type: biochemical, Pseudomonas; details: for residual activity (CC acylase): room temperature 16 hours, relative to activity before addition as 100
Protocol: (§1) Mutant CC acylase N-176 producing E. coli JM 109 (PCCN 176-2) FERM BP-3047 was cultured according to the method disclosed in Example 3 of Japanese Patent Unexamined Publication No. 584078 and the cells were harvested by centrifugation. The obtained cell pellets were disrupted with a homogenizer and soluble protein component was extracted with water, which was followed by centrifugation to remove debris, whereby a crude extract solution was obtained.
(§2) Polyethyleneimine was added to the crude extract solution obtained in the above-mentioned (1) to allow precipitation of the nucleic acid, which was followed by centrifugation to recover supernatant. This supernatant was applied to DEAE column equilibrated with phosphate buffer (pH 7.0), washed with water and eluted with 0.2M-NaCl. […] The activities of CC acylase and deacetylase in each sample before and after the addition of the surfactant were measured and the changes thereof were examined. The enzyme activity was calculated by quantitatively determining 7-ACA and deacetyl 7-ACA produced from GL7-ACA as a substrate.

deacetylase = assay: Residual contaminant deacetylase activity after addition of surfactant (deacetyl 7-ACA produced from GL7-ACA); assay type: biochemical; details: for residual activity (deacetylase): room temperature 16 hours, relative to activity before addition as 100
Protocol: as §1, §2

[1] = surfactant addition concentration 0.1%
[2] = surfactant addition concentration 0.3%
[3] = surfactant addition concentration 0.5%
[4] = surfactant concentration 0.1-0.3%

Compound | residual activity (CC acylase) (CC acylase; [1]) | residual activity (CC acylase) (CC acylase; [2]) | residual activity (CC acylase) (CC acylase; [3]) | residual activity (deacetylase) (deacetylase; [1]) | residual activity (deacetylase) (deacetylase; [2]) | residual activity (deacetylase) (deacetylase; [3]) | CC acylase residual activity (CC acylase; [4]) | activity of contaminant deacetylase (deacetylase; [4]) | removal of deacetylase (deacetylase; surfactant concentration 0.5%)
alkyl glycine [Nissan Anon LG] | 100 | 100 | 95 | 60 | 50 | 30 | – | – | –
CCCCCCCCCCCC[N+](C)(C)C.[Cl-] [Cation BB, dodecyltrimethyl ammonium chloride] | 100 | 100 | 85 | 55 | 45 | 5 | – | – | –
alkyl(palm)trimethyl ammonium chloride [Cation FB] | 100 | 100 | 80 | 55 | 40 | 1 | – | – | –
polyoxyethylene octylphenyl ether [Nonion HS-210] | 100 | 100 | 100 | 50 | 50 | 45 | – | – | –
polyoxyethylenesorbitan monooleate [Nonion TO-221] | 100 | 100 | 100 | 50 | 50 | 45 | – | – | –
alkyl(palm)dimethylbenzyl ammonium chloride [Cation F2-50] | 95 | 92 | 70 | 5 | 1 | 0 | ≥ 90% | not more than 5% | removed nearly completely
